Reference: ChEMBL document CHEMBL1144536, “Ring substituent effects on biological activity of vinyl sulfones as inhibitors of HIV-1” (Bioorg Med Chem, 2007)

How the values were obtained:
[1] = target: T1, Human immunodeficiency virus type 1 integrase (Human immunodeficiency virus 1, UniProt Q7ZJM1); experiment: Inhibition of HIV1 integrase-mediated 3'-processing activity
[2] = target: T1, Human immunodeficiency virus type 1 integrase; experiment: Inhibition of HIV1 integrase-mediated integration activity
[3] = Cytotoxicity against HeLa H1-JC.37 cells by MTS assay; type: cell-based; conditions: Homo sapiens
[4] = system: Human immunodeficiency virus 1; experiment: Antiviral activity against HIV1 by focal infectivity assay; type: functional, organism-based
[5] = Selectivity ratio of EC50 for HIV1 to IC50 for HeLa H1-JC.37 cells; type: functional

T1 sequence (Q7ZJM1 whole entry): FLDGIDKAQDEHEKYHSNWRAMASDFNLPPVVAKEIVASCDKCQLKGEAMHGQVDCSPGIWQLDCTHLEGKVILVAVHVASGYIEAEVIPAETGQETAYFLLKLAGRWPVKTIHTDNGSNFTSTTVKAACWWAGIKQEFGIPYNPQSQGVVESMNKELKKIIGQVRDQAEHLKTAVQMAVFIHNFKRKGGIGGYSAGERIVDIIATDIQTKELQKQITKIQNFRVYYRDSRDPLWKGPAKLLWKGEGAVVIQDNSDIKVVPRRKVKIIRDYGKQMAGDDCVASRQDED

| Compound | IC50 [1] | IC50 [2] | IC50 [3] | EC50 [4] | Ratio IC50/EC50 [5] |
| --- | --- | --- | --- | --- | --- |
| O=S(=O)(/C=C/c1cc(F)c(F)c(F)c1)CS(=O)(=O)/C=C/c1cc(F)c(F)c(F)c1 | > 100 µM | > 100 µM | 7.8 µM | 2 µM | 3.9 |
| O=S(=O)(CCc1ccc(O)c(O)c1)CS(=O)(=O)CCc1ccc(O)c(O)c1 | 40 µM | 17 µM | 170 µM | 6.2 µM | 27 |
| O=S(=O)(/C=C/c1cc(Cl)ccc1Cl)CS(=O)(=O)/C=C/c1cc(Cl)ccc1Cl | > 100 µM | > 100 µM | 2.6 µM | 3.4 µM | 0.77 |
| COc1cc(/C=C/S(=O)(=O)CS(=O)(=O)/C=C/c2cc(OC)c(OC)cc2[N+](=O)[O-])c([N+](=O)[O-])cc1OC | 500 µM | 500 µM | – | > 10 µM | – |
| COc1cc(OC)c(OC)cc1/C=C/S(=O)(=O)CS(=O)(=O)/C=C/c1cc(OC)c(OC)cc1OC | > 1000 µM | > 1000 µM | – | > 10 µM | – |
| O=S(=O)(/C=C/c1ccc2c(c1)OCCO2)CS(=O)(=O)/C=C/c1ccc2c(c1)OCCO2 | > 100 µM | > 100 µM | – | > 10 µM | – |
| O=S(=O)(CCc1ccccc1)CS(=O)(=O)CCc1ccccc1 | > 100 µM | > 100 µM | > 150 µM | > 10 µM | – |
| O=S(=O)(CCc1cc(F)c(F)c(F)c1)CS(=O)(=O)CCc1cc(F)c(F)c(F)c1 | 900 µM | 333 µM | 110 µM | > 10 µM | – |
| O=S(=O)(/C=C/c1ccc2[nH]ccc2c1)CS(=O)(=O)/C=C/c1ccc2[nH]ccc2c1 | > 100 µM | 95 µM | – | > 10 µM | – |
| COc1cc(Br)c(/C=C/S(=O)(=O)CS(=O)(=O)/C=C/c2cc(OC)c(OC)cc2Br)cc1OC | 850 µM | 500 µM | – | > 10 µM | – |
| O=S(=O)(/C=C/c1ccc(OCc2ccccc2)c(OCc2ccccc2)c1)CS(=O)(=O)/C=C/c1ccc(OCc2ccccc2)c(OCc2ccccc2)c1 | > 100 µM | > 100 µM | – | > 10 µM | – |
| O=S(=O)(/C=C/c1cccc(Br)n1)CS(=O)(=O)/C=C/c1cccc(Br)n1 | > 1000 µM | 900 µM | – | > 10 µM | – |
| O=S(=O)(/C=C/c1cc(OCc2ccccc2)c(OCc2ccccc2)c(OCc2ccccc2)c1)CS(=O)(=O)/C=C/c1cc(OCc2ccccc2)c(OCc2ccccc2)c(OCc2ccccc2)c1 | > 100 µM | > 100 µM | – | > 10 µM | – |
| COc1cc(/C=C/S(=O)(=O)CS(=O)(=O)/C=C/c2cc(Br)c(OC)c(OC)c2)cc(Br)c1OC | > 100 µM | > 100 µM | – | > 10 µM | – |
| COc1ccc(Br)cc1/C=C/S(=O)(=O)CS(=O)(=O)/C=C/c1cc(Br)ccc1OC | > 100 µM | > 100 µM | – | > 10 µM | – |
| O=S(=O)(/C=C/c1ccccc1OCc1ccccc1)CS(=O)(=O)/C=C/c1ccccc1OCc1ccccc1 | > 100 µM | > 100 µM | – | > 10 µM | – |
| O=C(O)c1ccc(/C=C/S(=O)(=O)CS(=O)(=O)/C=C/c2ccc(C(=O)O)cc2)cc1 | 33 µM | 33 µM | – | > 10 µM | – |
| O=S(=O)(/C=C/c1ccccc1)CS(=O)(=O)/C=C/c1ccccc1 | > 100 µM | > 100 µM | 12 µM | 1.2 µM | 9.9 |
